In patent US10799501B2, “Combination of an inhibitor of PARP with an inhibitor of GSK-3 or DOT1L” (King's College London, priority 2015, dated 2020):

Tests used:
Kasumi (AML1-ETO) [1] = experiment: Humanized xenograft: NSG mice transplanted with Kasumi cells, Olaparib treatment; assay type: in vivo, mouse
Method: We established humanized models of AML1-ETO and PML-RARα leukemia in sub-lethally irradiated NOD/SCID/IL2Rg−/−(NSG, 1 dose 200 RADs) by transplanting 2×10^6 Kasumi (intra-femoral, IF) and 1×10^5 NB4-LR2 or 1×10^5 THP1 (intravenous, IV) cells. The day after the transplantation, mice were split into two groups and given intra-peritoneal injections of vehicle (10% HBC) or Olaparib (25 mg/kg in 10% HBC) daily for 2-4 weeks. The maximum tolerable dose was calculated by in vivo dose-response experiments. Mice were monitored daily until they developed symptoms of leukemia, when they were culled and bone marrow, spleen and liver harvested and analyzed by FACS. The engraftment of human donor cells was defined as human CD45/CD33 double positive by FACS.

Kasumi (AML1-ETO) [2] = experiment: In vitro PARPi treatment of human leukemic cell line Kasumi; assay type: cell-based
Method: NB4-LR2 and THP1 cell lines (kindly provided by Dr Arthur Zelent and Professor Mel Greaves respectively) were cultured in RPMI (Invitrogen) supplemented with 10% selected FBS (R10), 2 mM L-Glutamine. Kasumi cell line (kindly provided by Dr Olaf Heidenreich) was cultured in RPMI-Hepes modified (Sigma) supplemented with 20% selected FBS and 2 mM L-[…]). Cell lines were validated by qPCR for their respective oncogenes. NIH3T3 and GP2 cell line was cultured in DMEM (Invitrogen) supplemented with 10% selected FBS and 2 mM L-Glutamine. Human primary AML cells were cultured in IMEM (Invitrogen) supplemented with […], 2 mM L-Glutamine, 10 ng/mL each of human cytokines, IL3, IL6, SCF, FLT3 ligand, and TPO. Cells were kept at 37° C. and 5% CO2. Use of human primary cells was approved by King's College London committee and consents of the patients were obtained. […] Colonies were scored 6-7 days after plating. […] Samples were then washed in PBS analysed at the FACS LSRII (BD Biosciences Pharmingen) with FACS Diva. […] Cells were counted in at least 5 fields for each slide, for a total of over 100 cells. The percentage of senescent cells was calculated by the percentage of the number of blue cell in the field.

[3] = NSG mice succumbed with Kasumi driven disease, Olaparib 25 mg/kg i.p. daily

## O=C(c1cc(Cc2n[nH]c(=O)c3ccccc23)ccc1F)N1CCN(C(=O)C2CC2)CC1 [Olaparib, 4-[(3-[(4-cyclopropylcarbonyl)piperazin-4-yl]carbonyl)-4-fluorophenyl]methyl(2H)-phthalazin-1-one]
Kasumi (AML1-ETO) [1]; [3]
  BM Engraftment (%): 41.35 ± 27.73%
  Disease Latency (days; median): 102 days
  Hematopoietic Liver Engraftment (%): 41.68 ± 26.19%
  Hematopoietic Spleen Engraftment (%): 48.68 ± 33.71%
  Liver: 1.999 ± 0.3720 g
  Spleen: 0.1630 ± 0.1198 g
Kasumi (AML1-ETO) [1]; monotherapy, disease onset driven by AML1-ETO, control 55 days
  median survival: 102 days
Kasumi (AML1-ETO) [2]; PARPi 72 hrs / 4 days
  senescence and apoptosis: effectively induce senescence and apoptosis
Kasumi (AML1-ETO) [2]; methylcellulose 7 days, 5 μM Olaparib
  colony forming ability: reduced the colony forming ability
